Biological target: T1, Bisphosphoglycerate mutase (Homo sapiens, UniProt P07738)
T1 sequence (P07738 whole entry): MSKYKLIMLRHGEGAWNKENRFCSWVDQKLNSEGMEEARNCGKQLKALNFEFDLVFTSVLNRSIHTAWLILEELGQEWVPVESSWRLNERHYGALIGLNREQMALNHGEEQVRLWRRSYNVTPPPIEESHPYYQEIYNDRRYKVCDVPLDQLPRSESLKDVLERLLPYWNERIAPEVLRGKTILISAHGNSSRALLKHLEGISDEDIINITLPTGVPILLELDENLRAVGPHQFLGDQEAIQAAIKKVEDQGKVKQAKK
Assay: Inhibition of human Bis-phosphoglycerate mutase using 3-PG, GAP and NAD as substrate preincubated for 30 mins followed by substrate addition and measured after 100 mins in presence of GAPDH by resazurin reagent based fluorescence analysis

Row | SMILES | IC50 [nM]
1 | Cc1nc(COc2ncccn2)sc1-c1csc(-c2cc(F)c(O)c(F)c2F)n1 | 159
2 | Cc1nc(COc2ncccn2)sc1-c1cccc(-c2ccc(-c3noc(=O)[nH]3)cc2)n1 | 138

Molecules with a lower IC50, results first:

Row | IC50 [nM] | SMILES
3 | 92 | Cc1nc(COc2cccnn2)sc1-c1csc(-c2cc(F)c3[nH]nnc3c2)n1
4 | 21 | Cc1cnc(OCc2nc(C)c(-c3cccc(-c4cc(F)c5nn[nH]c5c4F)n3)s2)nc1
5 | 19 | Cc1nc(COCC(C)(C)O)sc1-c1cccc(-c2cc(F)c3nn[nH]c3c2F)n1

Source: ChEMBL document CHEMBL5131548, “Novel Bis-phosphoglycerate Mutase Modulators for Treating Sickle Cell Disease” (ACS Med Chem Lett, 2022)
